Among the test systems are CCRF-CEM; CAKI-1; SK-MEL-5; OVCAR-5; SF-295; ACHN; KM-20L2; M14; HT-29; 786-0; SF-539; SR; LOX IMVI; SK-MEL-2; SN12C; OVCAR-8; OVCAR-3; MCF7; PC-3; MDA-N.
Common to all, as to test: NCI-60 cell line screen, 48 h

Each structure is given as a SMILES string.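 Values below derive from 48-hour exposures of cells grown in 96-well plates, with endpoints linearly interpolated between the two concentrations bracketing the appropriate inhibition level. At the GI50, growth is halved.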 Calls of active or inactive are those of the source. No stated cut-off is given here; in the data, active = GI50 up to about 1.1 µM and inactive = higher.

On to `O=C(c1ccc(Cl)cc1Cl)C1[C@H]2C(=O)N(c3ccc(Cc4ccc(N5C(=O)[C@@H]6ON(c7ccccc7)C(C(=O)c7ccc(Cl)cc7Cl)[C@@H]6C5=O)cc4)cc3)C(=O)[C@H]2ON1c1ccccc1` (stereo partly drawn), for which the GI50 in the experiment with CCRF-CEM, in the experiment on CAKI-1, with SK-MEL-5, in the experiment on OVCAR-5, with SF-295 and in the experiment with ACHN was > 50 µM (inactive) each time. Further, the GI50 in the experiment with KM-20L2, in the experiment on M14, in the experiment on HT-29, in the experiment with 786-0, in the experiment with SF-539 and in the experiment on SR was > 50 µM (inactive) in each case. The GI50 in the experiment with LOX IMVI, with SK-MEL-2, in the experiment on SN12C, in the experiment with OVCAR-8 and in the experiment on OVCAR-3 was > 50 µM (inactive) throughout.

Regarding `CN(C)/C=N/c1nc2ncn(CCOC(=O)c3ccccc3)c2c(=O)[nH]1`, the GI50 in the experiment on CCRF-CEM, with CAKI-1, in the experiment on SK-MEL-5, with OVCAR-5, in the experiment on SF-295 and in the experiment on ACHN was > 100 µM (inactive) throughout. Further, the GI50 in the experiment with KM-20L2, in the experiment on M14, with HT-29, in the experiment on 786-0, in the experiment on SF-539 and in the experiment on SR was > 100 µM (inactive) throughout. Also, the GI50 in the experiment with LOX IMVI, in the experiment on SK-MEL-2, in the experiment with SN12C, with OVCAR-8 and in the experiment with OVCAR-3 was > 100 µM (inactive) each time.

As for `N#CC(C#N)=c1[nH]c2cccc3c2-c2c(cccc2c3=C(C#N)C#N)[nH]1`, the GI50 is 45.1 µM (inactive) in the experiment with CCRF-CEM; > 100 µM (inactive) with CAKI-1; > 100 µM (inactive) in the experiment on SK-MEL-5; > 100 µM (inactive) in the experiment on OVCAR-5; > 100 µM (inactive) in the experiment on SF-295; > 100 µM (inactive) with KM-20L2. Moreover, the GI50 in the experiment with M14, in the experiment with HT-29, in the experiment on 786-0, with SF-539, in the experiment on SR and in the experiment with LOX IMVI was > 100 µM (inactive) in each case. In addition, the GI50 in the experiment with SN12C, in the experiment with OVCAR-8 and in the experiment on OVCAR-3 was > 100 µM (inactive) in each case.

For the compound `C[N+]1=C(c2cccnc2/C=N/O)OCC1(C)C`, the GI50 in the experiment on CCRF-CEM, in the experiment with CAKI-1, in the experiment with SK-MEL-5, in the experiment with OVCAR-5, with SF-295 and in the experiment on ACHN was > 100 µM (inactive) in each case. Further, the GI50 in the experiment on KM-20L2, in the experiment with M14, in the experiment on HT-29, in the experiment on 786-0, with SF-539 and in the experiment on SR was > 100 µM (inactive) in each case. Moreover, the GI50 in the experiment with LOX IMVI, in the experiment with SK-MEL-2, in the experiment on SN12C, in the experiment with OVCAR-8 and in the experiment on OVCAR-3 was > 100 µM (inactive) throughout.

As to `COc1ccc(CCC2c3cc(OC)c(OC)cc3CCN2C)cc1OC` (stereo not drawn), the GI50 with CCRF-CEM, in the experiment with CAKI-1, in the experiment with SK-MEL-5, with OVCAR-5, in the experiment on SF-295 and in the experiment on ACHN was > 100 µM (inactive) each time. The GI50 with KM-20L2, in the experiment on M14, in the experiment on HT-29, in the experiment on 786-0, in the experiment with SF-539 and in the experiment on SR was > 100 µM (inactive) in each case. In addition, the GI50 in the experiment on LOX IMVI, with SK-MEL-2, in the experiment on SN12C, in the experiment with OVCAR-8 and with OVCAR-3 was > 100 µM (inactive) throughout.

Consider `COc1ccc2[nH]c3c(c2c1)[C@H](c1ccccc1)C[C@@H]1C(=O)N(c2ccccc2)C(=O)[C@H]31`, for which the GI50 with CCRF-CEM is 30.9 µM (inactive); with CAKI-1 it was 25.6 µM (inactive); in the experiment with SK-MEL-5, 72.9 µM (inactive); with OVCAR-5, > 100 µM (inactive); with SF-295, 48.4 µM (inactive); with ACHN, 22.1 µM (inactive). Moreover, the GI50 in the experiment with KM-20L2 is 64.9 µM (inactive); with M14, 42.3 µM (inactive); in the experiment with 786-0 it was 17.5 µM (inactive); in the experiment on SF-539, > 100 µM (inactive); in the experiment with SR it was 31.6 µM (inactive); with LOX IMVI it was 33.2 µM (inactive). For the same compound, the GI50 in the experiment with SK-MEL-2 was 55.1 µM (inactive); with SN12C, 12.1 µM (inactive); in the experiment on OVCAR-8 it was 4.93 µM (inactive); with OVCAR-3 it was 23.8 µM (inactive).

Consider `CC(/C(=N\Nc1ccccc1)c1ccc(O)cc1)C1C(=O)Oc2ccccc21` (stereo not drawn), for which the GI50 with CCRF-CEM, in the experiment with CAKI-1, in the experiment on SK-MEL-5, with SF-295, in the experiment with ACHN and in the experiment with KM-20L2 was > 100 µM (inactive) each time. The GI50 in the experiment with M14, in the experiment on HT-29, in the experiment on 786-0, with SF-539, in the experiment with SR and in the experiment with LOX IMVI was > 100 µM (inactive) in each case. For the same compound, the GI50 in the experiment on SK-MEL-2, in the experiment with SN12C, in the experiment on OVCAR-8 and in the experiment with OVCAR-3 was > 100 µM (inactive) in each case.

`Cc1ccc(NC(=O)CC2SC(=N)NC2=O)cc1C` (stereo not drawn): the GI50 with CAKI-1, in the experiment with OVCAR-5, in the experiment with SF-295, in the experiment with ACHN, with KM-20L2 and in the experiment with M14 was > 100 µM (inactive) throughout. The GI50 in the experiment with HT-29, with 786-0, with SF-539, in the experiment with SR, with LOX IMVI and in the experiment with SK-MEL-2 was > 100 µM (inactive) each time. Besides, the GI50 in the experiment on SN12C, in the experiment with OVCAR-8 and in the experiment with OVCAR-3 was > 100 µM (inactive) in each case.

For `CC(=O)NC(C=O)C(O[C@H](C)C(=O)NC(C)C(=O)NC(CCC(N)=O)C(=O)OCc1ccccc1)C(O)C(O)COC(=O)CCNc1c2ccccc2nc2cccc([N+](=O)[O-])c12` (stereo partly drawn), the GI50 was 1.94 µM (inactive) with CCRF-CEM; 1.45 µM (inactive) in the experiment with CAKI-1; > 100 µM (inactive) with SK-MEL-5; 3.44 µM (inactive) in the experiment with OVCAR-5; 13.1 µM (inactive) with SF-295; 2.94 µM (inactive) with ACHN. For the same compound, the GI50 with KM-20L2 was 2 µM (inactive); with M14, 1.9 µM (inactive); in the experiment on HT-29 it was 2.14 µM (inactive); with 786-0 it was 4.56 µM (inactive); with SF-539, 6.12 µM (inactive); in the experiment with SR, 0.637 µM (active). Also, the GI50 was 14.6 µM (inactive) in the experiment with LOX IMVI; 1.63 µM (inactive) in the experiment on SK-MEL-2; 2.02 µM (inactive) in the experiment on SN12C; 4.89 µM (inactive) in the experiment on OVCAR-8; 1.85 µM (inactive) with OVCAR-3.

As for `O=C(CO[N+](=O)[O-])OC/C=C/c1ccccc1`, the GI50 in the experiment with CCRF-CEM, with CAKI-1, in the experiment on OVCAR-5, with SF-295, with ACHN and in the experiment on KM-20L2 was > 100 µM (inactive) each time. In addition, the GI50 with M14, with HT-29, in the experiment with 786-0, in the experiment with SF-539, in the experiment on SR and in the experiment on LOX IMVI was > 100 µM (inactive) throughout. Further, the GI50 in the experiment with SK-MEL-2, in the experiment with SN12C, in the experiment with OVCAR-8 and in the experiment with OVCAR-3 was > 100 µM (inactive) each time.

Take `CCOC(=O)c1oc2ccc([N+](=O)[O-])c3c2c1CCC3`: the GI50 in the experiment on CCRF-CEM is > 95.1 µM (inactive); in the experiment with CAKI-1, 61.4 µM (inactive); with SK-MEL-5, 69.7 µM (inactive); with OVCAR-5, > 92 µM (inactive); in the experiment with SF-295, 23.9 µM (inactive); in the experiment with ACHN it was 58.3 µM (inactive). Besides, the GI50 is > 76.6 µM (inactive) in the experiment on MCF7; > 100 µM (inactive) in the experiment on KM-20L2; > 86.3 µM (inactive) in the experiment on M14; > 100 µM (inactive) in the experiment on PC-3; > 100 µM (inactive) with HT-29; 25.6 µM (inactive) in the experiment on 786-0. For the same compound, the GI50 with SF-539 is 19 µM (inactive); in the experiment with SR, > 100 µM (inactive); in the experiment on MDA-N, > 100 µM (inactive); in the experiment with LOX IMVI it was 66.5 µM (inactive); in the experiment on SK-MEL-2, 47.1 µM (inactive); with SN12C, > 84.3 µM (inactive). Further, the GI50 in the experiment on OVCAR-8 is 82.4 µM (inactive); in the experiment with OVCAR-3 it was > 100 µM (inactive).

(Values after ChEMBL document CHEMBL1201862, “PubChem BioAssay data set” (2004).)
